In patent publication US11220534B2, “Treatment of neurological diseases” (Lancaster University Business Enterprises Limited, priority 2016, dated 2022):
Where no end group is shown, it is not given here. [ ]: non-standard residue; d: D form. Aib = CC(C)(N)C(=O)O

What was measured:
Format in all cases: in vivo
APP/PS1 mice [1] = test: Classical Morris water maze test
Text: (§1) Materials and methods in Example 2 are the same as Example 1 except when stated. Reagents used in Example 2 only include antibodies to p-PI3Kp85, PI3Kp85, p-Akt (ser473), Akt, p-GSK3β (Y216), and GSK3β from Abcam, Inc. Cambridge, UK. The antibody to p-tau (AT8) from Thermo Scientific USA. Mouse Anti-β-actin, Anti-Rabbit IgG, Anti-mouse IgG, CY3-Anti-mouse IgG, RIPA Lysate, BCA Protein Assay Kit, DAPI staining solution and Anti-fluorescence decay agent from Boster (Wuhan, China).
(§2) Classical Morris water maze (MWM) test was used to investigate spatial reference memory of mouse. The water maze mainly included a stainless steel pool and a platform in the pool for escape. There were several landmarks fixed to the walls of the water maze. The pool was filled with tap water at 22±2° C. The first phase was acquisition trial phase which was consisted of five training days (days 1-5) and four trials each day. The pool (diameter, 120 cm; high, 50 cm) was divided into four quadrants and the escape platform (diameter, 12 cm) hidden 1 cm beneath the water surface was placed in the center of the first quadrant. […] The escape latencies were recorded by Ethovision 3.0 software system (Noldus Information Technology, the Netherlands). […] The percentage of swimming time in target quadrant (the first quadrant) and frequency of platform crossing were recorded. […] Swimming time to target was recorded.

APP/PS1 mice [2] = test: Reversal Morris water maze test
Text: as §1, §2

APP/PS1 transgenic mice = test: Immunohistochemical measurement of beta-amyloid plaque load in the cortex of APP/PS1 transgenic mice
Text: Animal models have been developed to test novel drugs. A standard model for Alzheimer's disease is transgenic mice that express human mutated genes for amyloid production that are known to induce Alzheimer's disease in humans. These APP/PS1 transgenic mice recapitulate some of the symptoms of Alzheimer's disease such as the aggregation of amyloid in the brain, memory loss and the loss of synapses (Radde et al., 2006).
The APP/PS1 mice express human Swedish mutated APP and human mutated presenilin-1 which induce Alzheimer's Disease in humans.
The dose of peptide tested was 10 nmol/kg body weight. The peptides were administered by a once-daily intraperitoneal injection for 8 weeks. Saline injections were administered as a control. Six animals per group were injected with a peptide or a saline control.
Animals (6 per group) were perfused transcardially with 30 ml of ice-cold PBS and 30 ml of ice-cold 4% paraformaldehyde to postfix the brain. The brains were removed and placed in fresh 30% sucrose solution in PBS to cryoprotect tissue and cut at a thickness of 40 μm on a cryostat. Sections were chosen according to stereological rules, with the first section taken at random and every 5th section afterwards. Between 7 and 13 sections were analysed per brain.
Immunostaining techniques were used to assess the neuronal plaque load (anti beta-amyloid rabbit polyclonal antibody (1:200, rabbit polyclonal-Invitrogen 71-5800) and of synaptophysin (polyclonal rabbit anti-synaptophysin primary antibody, 1:2000, Abcam, Cambridge, UK) to measure the amount of synapses in the cortex. Brain samples were first exposed to 99% formic acid for 7 minutes and then washed 3 times for 10 minutes in TBS. Pre-treatment with 99% formic acid is known to drastically increase the detection of beta-Amyloid in formalin-fixed brain samples. Then samples were incubated in 0.3% H2O2 (Sigma Aldrich; Cat.-No.: 516813) in TBS for 30 minutes on the shaker to deplete endogenous peroxides activity, and were 3 times washed in TBS for 10 minutes afterwards.
To increase permeability of membranes in the brain tissue, samples were exposed to 0.3% Triton X-100 (Sigma Aldrich; Cat.-No.: 516813) in TBS for 10 minutes on the shaker. Unspecific proteinophilic binding in the tissue was saturated by incubating the samples with 5% goat serum (Gibco; Cat.-No.: 16210-064) in TBS for 30 minutes on the shaker.
A primary antibody against beta-Amyloid or synaptophysin was added and incubated overnight on the shaker at 4° C. The antibody was polyclonal and raised against a synthetic beta-Amyloid 1-43 peptide in rabbit. The primary antibody was used in a final dilution of 1 to 250 in TBS containing 2% goat serum and […]. […]

YXEGTFTSDYSIYLDKQAAXEFVNWLLAGGPSSGAPPPSKRRQRRKKRGY-NH2 (Y[Aib]EGTFTSDYSIYLDKQAA[Aib]EFVNWLLAGGPSSGAPPPSKRRQRRKKRGY-NH2) [DA5, No. 12; X=aminoisobutyric acid]
probe test, recall of the escape route (classical Morris water maze) (APP/PS1 mice [1]; APP/PS1 mice vs APP/PS1-saline, FIG. 7c, 7d): recalled the escape route to a greater extent than APP/PS1-saline mice
disorder in spatial memory (classical Morris water maze) (APP/PS1 mice [1]; APP/PS1 mice, FIG. 7, N=8-14 per group): ameliorated
probe test, recall of a change in escape route (reverse Morris water maze) (APP/PS1 mice [2]; APP/PS1 mice vs APP/PS1-saline, FIG. 8c, 8d): recalled a change in escape route to a greater extent than APP/PS1-saline mice
cognitive flexibility and ability to relearn (reverse Morris water maze) (APP/PS1 mice [2]; APP/PS1 mice, FIG. 8, N=8-14 per group): protects APP/PS1 mice from decreased cognitive flexibility and restores their ability to relearn
beta-amyloid plaque load in the cortex (% area positive for beta amyloid in cross sections of the brain cortex) (APP/PS1 transgenic mice; 10 nmol/kg body weight, once-daily intraperitoneal injection for 8 weeks, FIG. 1, N=6 per group): reduces beta-amyloid plaque load
beta-amyloid plaque load compared with the single GIP or GLP-1 analogues (APP/PS1 transgenic mice; 10 nmol/kg i.p. once daily for 8 weeks, FIG. 1): superior to the single GIP or GLP-1 analogues
